Laboratory results taken from the supplement of paper PMC10307832.

Legend:
Assay in all cases: relative viability (nuclei count vs DMSO), 5 days (fraction); higher = more cells survive
Nelarabine + Linsitinib = compound: COc1nc(N)nc2c1ncn2[C@@H]1O[C@H](CO)[C@@H](O)[C@@H]1O [Nelarabine] + C[C@]1(O)C[C@@H](c2nc(-c3ccc4ccc(-c5ccccc5)nc4c3)c3c(N)nccn32)C1 [Linsitinib] (partner 1 µM)
Summary of the method: (§1)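 Relative viability divides the nuclei count in treated wells by that in vehicle wells. Lung cancer cell lines were seeded in 1536-well plates, dosed by pin tool the next day, and fixed and stained after 5 days in one step with final 0.05% Triton X-100, 1% formaldehyde and 1 ug/ml Hoechst. Dosing was a single drug or a fixed anchor-drug dose plus five library-drug doses (not always all listed) in √10 steps, and values are medians of duplicate plates imaged at 4×.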

Adavosertib + OSI-027 = compound: C=CCn1c(=O)c2cnc(Nc3ccc(N4CCN(C)CC4)cc3)nc2n1-c1cccc(C(C)(C)O)n1 [Adavosertib] + COc1cccc2cc(-c3nc([C@H]4CC[C@H](C(=O)O)CC4)n4ncnc(N)c34)[nH]c12 [OSI-027] (partner 0.5 µM)
Summary of the method: as §1

Adavosertib + Vorinostat = compound: C=CCn1c(=O)c2cnc(Nc3ccc(N4CCN(C)CC4)cc3)nc2n1-c1cccc(C(C)(C)O)n1 [Adavosertib] + O=C(CCCCCCC(=O)Nc1ccccc1)NO [Vorinostat] (partner 1 µM)
Summary of the method: as §1

Nelarabine + Navitoclax = compound: COc1nc(N)nc2c1ncn2[C@@H]1O[C@H](CO)[C@@H](O)[C@@H]1O [Nelarabine] + CC1(C)CCC(c2ccc(Cl)cc2)=C(CN2CCN(c3ccc(C(=O)NS(=O)(=O)c4ccc(N[C@H](CCN5CCOCC5)CSc5ccccc5)c(S(=O)(=O)C(F)(F)F)c4)cc3)CC2)C1 [Navitoclax] (partner 0.5 µM)
Summary of the method: as §1

| Cell Line | relative viability (Nelarabine + Linsitinib; first compound 0.01 µM) | relative viability (Nelarabine + Linsitinib; first compound 0.03162 µM) | relative viability (Nelarabine + Linsitinib; first compound 0.1 µM) | relative viability (Nelarabine + Linsitinib; first compound 0.3162 µM) | relative viability (Nelarabine + Linsitinib; first compound 1 µM) | relative viability (Adavosertib + OSI-027; first compound 0.01 µM) | relative viability (Adavosertib + OSI-027; first compound 0.03162 µM) | relative viability (Adavosertib + OSI-027; first compound 0.1 µM) | relative viability (Adavosertib + OSI-027; first compound 0.3162 µM) | relative viability (Adavosertib + Vorinostat; first compound 0.01 µM) | relative viability (Adavosertib + Vorinostat; first compound 0.03162 µM) | relative viability (Adavosertib + Vorinostat; first compound 0.1 µM) | relative viability (Adavosertib + Vorinostat; first compound 0.3162 µM) | relative viability (Nelarabine + Navitoclax; first compound 0.01 µM) | relative viability (Nelarabine + Navitoclax; first compound 0.03162 µM) | relative viability (Nelarabine + Navitoclax; first compound 0.1 µM) | relative viability (Nelarabine + Navitoclax; first compound 0.3162 µM) | relative viability (Nelarabine + Navitoclax; first compound 1 µM) |
| --- | --- | --- | --- | --- | --- | --- | --- | --- | --- | --- | --- | --- | --- | --- | --- | --- | --- | --- |
| NCI-H1651 | 1.13 | 0.88 | 1.15 | 0.992 | 0.906 | 0.577 | 0.571 | 0.781 | 0.539 | 0.524 | 0.626 | 0.567 | 0.538 | 1.48 | 1.1 | 1.1 | 1.04 | 1.08 |
| LU99A | 0.534 | 0.461 | 0.669 | 0.581 | 0.617 | 0.314 | 0.282 | 0.307 | 0.298 | 0.485 | 0.486 | 0.462 | 0.307 | 0.918 | 0.821 | 0.845 | 0.765 | 0.758 |
| LK-2 | 1.24 | – | 0.608 | 0.691 | 0.673 | 0.17 | 0.208 | 0.207 | 0.216 | 0.265 | 0.362 | 0.351 | 0.306 | 0.975 | – | 1.09 | 0.935 | 0.729 |
| NCI-H1666 | 0.911 | 0.766 | 0.906 | 0.797 | 0.788 | 0.797 | 0.851 | 0.847 | 0.744 | 1.06 | 0.865 | 0.935 | 1.01 | 1.08 | 1.08 | 0.807 | 1.07 | 0.937 |
| H3255 | 1.31 | 1.09 | 1.12 | 0.885 | 0.957 | 0.506 | 0.654 | 0.584 | 0.539 | 0.763 | 0.908 | 0.828 | 1 | 0.59 | 0.486 | 0.625 | 0.6 | 0.622 |
| SK-MES-1 | 1.15 | 1.09 | 1.03 | 1.1 | 1.08 | 0.681 | 0.576 | 0.428 | 0.198 | 1.09 | 1.06 | 0.778 | 0.348 | 1.36 | 1.55 | 1.13 | 1.09 | 1.29 |
| NCI-H2023 | 0.7 | 0.854 | 0.554 | 0.625 | 0.561 | 0.465 | 0.35 | 0.304 | 0.203 | 0.671 | 0.494 | 0.348 | 0.16 | 1.26 | 1.17 | 1.03 | 1.07 | 1.01 |
| NCI-H1650 | – | – | – | – | – | 0.447 | 0.775 | 0.563 | 0.384 | 0.63 | 0.731 | 0.485 | 0.389 | 1.32 | 1.36 | 1.28 | 1.36 | 1.23 |
| LCLC-97TM1 | 0.222 | 0.163 | 0.242 | 0.225 | 0.186 | 0.484 | 0.459 | 0.584 | 0.49 | 0.809 | 0.71 | 0.77 | 0.573 | 0.428 | 0.202 | 0.458 | 0.478 | 0.351 |
